Measured values from patent US8445281B2, “In vitro exposure of immature oocytes to BDNF enhances generation of embryonic stem cells” (The Board of Trustees of the Leland Stanford Junior …, priority 2006, dated 2013).

Columns and labels:
[1] = tested on: Trk receptor; assay: In vivo first polar body extrusion by ovulated oocytes; set-up: species or system mouse; conditions: PMSG-primed mice, hCG with i.p. compound, 12 h after hCG
Protocol: (§1) In Vivo Analysis. […] For negative controls, the plasma membrane nonsoluble K252b was used. Twelve hours after hCG injection, ovulated COCs were obtained from the oviducts. After treatment with hyaluronidase (Specialty Media) for 1-2 min, oocytes were separated from cumulus cells and the proportion of oocytes showing first polar body extrusion was evaluated. To evaluate the role of BDNF in the conditioning of oocytes for early embryo development, immature mice were treated with PMSG, followed by hCG as described above. […] Fertilized oocytes were separated from cumulus cells, washed three times in M2 medium, and cultured for 5 days in modified M16 medium. Embryonic development was monitored daily, and the progression of fertilized eggs into preimplantation embryos was assessed.

[2] = tested on: oocytes (cumulus oocyte complexes); assay: First polar body extrusion by oocytes in cultured COCs; format: cell-based, mouse; conditions: for effect on the stimulatory effect of BDNF on first polar body extrusion: COCs, cotreatment with BDNF; for first polar body extrusion in cultured oocytes: COCs cultured 20 h without FBS, NGF and NT-3 at 10 ng/ml
Protocol: Evaluation of First Polar Body Extrusion. For evaluating the transition from metaphase I stage to metaphase II (MII) stage oocytes, COCs were obtained from mouse ovaries 48 h after PMSG treatment by puncturing the largest follicles in M2 medium (Specialty Media, Phillipsburg, N.J.). COCs were washed twice, transferred to modified M16 medium (Specialty Media) without FBS, and cultured with or without different doses of BDNF, mouse nerve growth factor (NGF; R & D Systems), or human neurotrophin-3 (NT-3) (R & D Systems) for 20 h at 37° C. in 5% CO2/95% air. Some COCs were also cultured with BDNF with or without the TrkB ectodomain (R & D Systems), pan-specific Trk receptor inhibitor K252a (Calbiochem), or K252b. The occurrence of first polar body extrusion in the oocyte was examined after removing cumulus cells by using a small-bore pipette under Hoffman contrast microscopy (Nikon).

[3] = tested on: Trk receptor; assay: In vivo treatment, progression of zygotes into blastocysts in vitro; set-up: species or system mouse; conditions: 10 μg i.p. at 0, 4, 8 h after hCG; for decrease in number of cells in the blastocysts / suppression of development of zygotes into blastocyst stage embryos: fertilized oocytes cultured 5 days
Protocol: as §1

[4] = tested on: oocytes of preovulatory follicles; assay: Preovulatory follicle culture, GVBD of oocytes; format: cell-based, mouse; conditions: cultured preovulatory follicles
Protocol: Follicle Cultures. Preovulatory follicles were excised from mouse ovaries 48 h after PMSG treatment and cultured to examine nuclear maturation of oocytes (Kawamura et al. (2004) Proc. Natl. Acad. Sci. USA 101, 7323-7328). […] The vials were flushed at the start of the culture with O2/N2 (at a 1:1 ratio), sealed, and cultured at 37° C. with gentle shaking for 6 h. After culture, cumulus oocyte complexes (COCs) were isolated, and, after cumulus cells were removed, oocytes were examined for the occurrence of GVBD.

[5] = tested on: oocytes (cumulus oocyte complexes); assay: In vitro maturation, fertilization and early embryonic development; format: cell-based, mouse
Protocol: In Vitro Maturation, Fertilization, and Early Embryonic Development. We performed in vitro maturation of oocytes followed by in vitro fertilization as previously described, with slight modifications. COCs from PMSG-primed mice were obtained in the M2 medium supplemented with 5% FBS before culturing in minimum essential media-α (Invitrogen) supplemented with Earle's salts, 10 μg/ml streptomycin sulfate, 75 μg/ml penicillin G, and 5% FBS in the presence or absence of 3 ng/ml BDNF at 37° C. in 5% CO2/95% air. After 16 h of treatment, cumulus cells were removed and the oocytes were examined and classified according to their developmental stage (germinal vesicle, metaphase I, or MII). MII-stage oocytes were inseminated with sperm from B6D2F1 males and incubated for 4 h at 37° C. in 5% CO2/95% air. After in vitro fertilization, fertilized oocytes were recovered, washed three times, and cultured in human tubal fluid medium (Specialty Media). The following morning, two-cell stage embryos were collected and cultured in 2 ml of modified M16 medium for 5 days more up to the blastocyst stage at 37° C. in 5% CO2/95% air. Embryonic development was monitored daily by Hoffman modulation contrast microscopy, and the progression of fertilized eggs to preimplantation embryos was assessed.

[6] = tested on: MII oocytes; assay: Glutathione content in oocytes; format: cell-based, mouse; conditions: COCs treated 16 h
Protocol: FIGS. 4A-E depict BDNF conditioning of oocytes for development into preimplantation embryos. FIG. 4A is a bar graph indicating the percentage of MII oocytes that developed to two-cell or blastocyst-stage embryos. Specifically, COCs obtained from preovulatory follicles were cultured without (control) or with BDNF (3 ng/ml) for 16 h. After progression to the MII stage, oocytes were inseminated and cultured for 5 days more without hormones. The percentage of MII oocytes that developed to two-cell or blastocyst-stage embryos were evaluated (n=5, 34-95 oocytes per experiment). FIG. 4B indicates the effects of BDNF treatment on glutathione (GSH) content in oocytes. After treatment of COCs for 16 h without (control, C) or with BDNF, glutathione levels in oocytes at MII oocytes were evaluated (mean±SEM, n=6). FIG. 4C depicts the effects of K252a treatment in vivo on the progression of zygotes into blastocysts in vitro. […] After initial injection, mice were allowed to mate with fertile males. Fertilized oocytes were cultured for 5 days, and the number of blastocyst embryos was evaluated. FIG. 4D depicts the effects of K252a treatment on the number of cells in the blastocysts. […]
Because the oocyte content of glutathione is important to sperm nuclear decondensation, the glutathione concentration in oocytes also was evaluated. […]

[7] = pretreatment 3 ng/ml BDNF 16 h, then in vitro fertilization without BDNF

Row | Molecule | inhibition of first polar body extrusion by ovulated oocytes [1] | number of ovulated oocytes per animal [1] | effect on the stimulatory effect of BDNF on first polar body extrusion [2] | decrease in number of cells in the blastocysts [3] | suppression of development of zygotes into blastocyst stage embryos [3] | first polar body extrusion in cultured oocytes [2] | other results
1 | COC(=O)[C@@]1(O)C[C@H]2O[C@]1(C)n1c3ccccc3c3c4c(c5c6ccccc6n2c5c31)C(=O)NC4 [K252a] | 30% | 37.8±5.3 | suppressed | 51% | 72% |  | number of fertilized oocytes vs control ([3]; oocytes collected 22 h after hCG): did not differ
2 | CC12OC(CC1(O)C(=O)O)n1c3ccccc3c3c4c(c5c6ccccc6n2c5c31)C(=O)NC4 (stereo not shown) [K252b] | ineffective | 38.4±8.7 | not | not | ineffective |  | 
3 | TrkB ectodomain: TrkB ectodomain (R & D Systems), antagonises BDNF stimulation |  |  | blocked |  |  | ineffective | 
4 | NT-3: human neurotrophin-3 (R & D Systems) (protein, UniProt P20783 139-257, looked up) Neurotrophin-3: YAEHKSHRGEYSVCDSESLWVTDKSSAIDIRGHQVTVLGEIKTGNSPVKQYFYETRCKEARPVKNGCRGIDDKHWNSQCKTSQTYVRALTSENNKLVGWRWIRIDTSCVCALSRKIGRT |  |  |  |  |  | not | 
5 | NGF: mouse nerve growth factor (R & D Systems) (protein, UniProt P01139 122-241, looked up) Beta-nerve growth factor: SSTHPVFHMGEFSVCDSVSVWVGDKTTATDIKGKEVTVLAEVNINNSVFRQYFFETKCRASNPVESGCRGIDSKHWNSYCTTTHTFVKALTTDEKQAAWRFIRIDTACVCVLSRKATRRG |  |  |  |  |  | not | 
6 | BDNF: recombinant human BDNF (Pepro-Tech), neurotrophin, ligand of TrkB (protein, human, recombinant human BDNF (Pepro-Tech), neurotrophin, ligand of TrkB) MTILFLTMVISYFGCMKAAPMKEANIRGQGGLAYPGVRTHGTLESFTVNGPKAGSRGLTSLADTFEHVIEELLDEDQKVRPNEENNKDADLYTSRVMLSSQVPLEPFTPLLFLLEEYKNYLDAANMSMRVRRHSDPARRGELSVCDSISEWVTAADKKTAVDMSGGTFTVTVLEKVPVSKGQLKQYFYETKCNPMGYTKEGCRGIDKRHWNSQCRTTQSYVRALTMDSFTKKRIGWRFIRIDTSCVCTLTIKRGR |  |  |  |  |  | increased | cumulus cell expansion [4]: did not induce; induction of GVBD in oocytes ([4]; 6 h, 5 μg/ml LH or BDNF): not and lack of effect; increase in proportion of oocytes showing first polar body extrusion (MII-stage oocytes) ([5]; COCs, 3 ng/ml BDNF, 16 h, 5% FBS): more than 2 fold; increase in proportion of MII oocytes that developed into blastocyst-stage embryos [5, 7]: 5 fold; increase in proportion of MII oocytes that developed into two-cell embryos [5, 7]: 2 fold; glutathione content in MII oocytes [6]: increased
